# What was measured:
# [1] = system: Escherichia coli; assay: Antibacterial activity, inhibition halos in culture; assay type: cell-based
# Excerpt: (§1) The insulated compounds DCBEN, DHCA, E and mixture of E+DPB have their antibacterial properties tested in cultures of E.coli, Pseudomonas aeruginosa, Staphylococcus aureus and Streptococcus faecalis. Inhibition halos (in mm) and the obtained data recorded as in FIG. 1.
# (§2) Antibacterial activity of the compounds K, G1, G2 e L2 has been evaluated in cultures of E.coli, Pseudomonas aeruginosa, Staphylococcus aureus and Streptococcus faecalis. Inhibition halos have been measured (mm) and the data recorded as in FIG. 1. S.aureus, S.faecalis e E.coli, are sensitive to the tested compounds, just varying the halos, the compound G2 has the most toxity in cultures of S.aureus e S.faecalis. None of the tested compounds had effect in P.aeruginosa.
# [2] = system: Pseudomonas aeruginosa; assay: as above; assay type: cell-based
# Excerpt: as §1, §2
# [3] = system: Staphylococcus aureus; assay: as above; assay type: cell-based; conditions: Staphylococcus aureus culture
# Excerpt: as §1, §2
# [4] = system: Streptococcus faecalis; assay: as above; assay type: cell-based; conditions: Streptococcus faecalis culture
# Excerpt: as §1, §2
# [5] = system: T. cruzi trypomastigotes; assay: Effects against T. cruzi trypomastigotes cultures; assay type: cell-based, Trypanosoma cruzi
# Experimental: FIG. 2 are recorded ID50 data related to trypomastigotes cultures (one of the growing stages of Trypanosoma cruzi (T.cruzi)) also to the compounds DCBEN, DHCA, E and mixture E+DPB and the effects of said compounds extracted from propolis trypomastigotes of T.cruzi (in mg/mL). […] The same result for Violet Crystal is 0.205 mg/mL, as previously mentioned. The results for insulated compounds are greater than the Violet Crystal.
# [6] = system: Microsporeum gypseum; conditions: cited from earlier work
# [7] = system: A.benhamiae; conditions: cited from earlier work
# [8] = system: B.subtilis; conditions: cited from earlier work
# [9] = system: Corynebacterium equii; conditions: cited from earlier work
# [10] = system: Micrococcus lysodeikticus; conditions: cited from earlier work
# [11] = system: Pseudomonas aeruginosa; conditions: cited from earlier work
# [12] = system: Mycobacterium smegmatis; conditions: cited from earlier work
# [13] = system: Mycobaterium phlei; conditions: cited from earlier work
# [14] = system: Staphylococcus aureus; conditions: cited from earlier work
# [15] = system: Staphylococcus epidermidis; conditions: cited from earlier work
# [16] = system: Thermoactinomyces intermedius; conditions: cited from earlier work
# [17] = system: fibrosarcoma (line HT-1080); conditions: fibrosarcoma line HT-1080; cited from earlier work
# [18] = system: uterus colon carcinoma (line L5-26); conditions: uterus colon carcinoma line L5-26; cited from earlier work
smiles,measurement,setting,value
"CC(C)=CCc1cc(C=CC(=O)O)cc(CC=C(C)C)c1O [DHCA, 3,5-diprenyl-4-hydroxycinnamic acid]",Antibacterial effect in words,[1]; E.coli culture,did not present inhibition activity
same,"Antibacterial activty, inhibition halo",[1]; Escherichia coli culture,Ø
same,"Antibacterial activty, inhibition halo",[2],Ø
same,"Antibacterial activty, inhibition halo",[3],+ (+ halo < or = to 8 mm)
same,"Antibacterial activty, inhibition halo",[4],+ (+ halo < or = to 8 mm)
same,ID50/24 h,[5],932 ± 46 µg/mL
same,MIC,[6],"7,8 μg/mL"
same,MIC,[7],"15,6 μg/mL"
same,CIM,[8],31.3 µg/mL
same,CIM,[9],31.3 μg/m/L
same,CIM,[10],31.3 µg/mL
same,MIC,[11],31.3 µg/mL
same,MIC,[12],31.3 µg/mL
same,MIC,[13],62.5 µg/mL
same,MIC,[14],62.5 µg/mL
same,CIM,[15],62.5 µg/mL
same,MIC,[16],62.5 µg/mL
same,ED50 (cytotoxic dosage—50%),[17],45.47 µg/mL
same,ED50 (cytotoxic dosage—50%),[18],"59,32 μg/mL"

# Source: patent US20040126437A1, “Typing natural products” (priority 2000, published 2004)
